From patent US20090081320A1, “Method for Weight Reduction” (priority 2005, published 2009) come the findings set out here.

The test can be described thus: General observations in test persons using the diet with or without composition. It counts as in vivo, human. Particulars: diet not adhered to, additional intake. The source says:
It was observed that the application of the diet according to the invention by itself leads to a weight reduction. In all the test persons, however, side effects such as weakness and/or indisposition as well as gluttonous attacks were reported. […] This is due to the fact that with the intake of the composition that contains one or several active agents which promote fat burning, utilizable energy is made available and the fat burning is accelerated. A test person reported at the start of the reduction cycle on changing over to the diet in accordance with the invention combined with the simultaneous intake of a composition that contains one or several active agents which promote fat burning, that after 2-3 days, the feeling of indisposition or gluttonousness were no longer to be felt and the diet could be well adhered to.
Therefore, the composition contains, in a preferred embodiment in addition to one or several active agents that promote fat burning, one or several active agents that reduce the breakdown of fat to fatty acids in the intestines. Active agents that reduce the breakdown of fat to fatty acids in the intestines are herein active agents that inhibit enzymes which catalyse the breakdown of the fats (tricylglycerines) to fatty acids and glycerines. […] For a body weight deviating from this value, the quantity is to be appropriately adjusted.

`C[N+](C)(C)C[C@H](O)CC(=O)[O-]` [L-canitine, (3R)-hydroxy-4-(trimethylammonium)-butyrat]: the weight loss entry is “no weight loss”.
